Reference: patent US20230167132A1, “FORMS AND COMPOSITIONS OF INHIBITORS OF PLASMA KALLIKREIN” (Takeda Pharmaceutical Company Limited, priority 2020, published 2023)
Several values for one entry are separate records, joined by “and”; a condition that tells them apart may be missing. Identical values can stand only once.

Assays:
Assay type in all cases: physicochemical
[1] = Storage for one week at 40° C./75% RH and 25° C./97% RH, XRPD; settings: for stability under storage: summary of scaled-up solid forms, conditions not restated
[2] = Intrinsic Dissolution Rate (IDR), Sirius inForm; settings: for IDR Sector 1 average (pH 2.0) / IDR Sector 1 pH 2.0: pH 2.0, 37° C.; for IDR Sector 1 pH 2.0: individual runs; for sector 1 IDR compared to free base form Compound 1 Form 1 / other forms: pH 2.0, comparison in words; for XRPD Analysis Post Dissolution: solid form of disc after IDR analysis
Experimental: About 40 mg of the sample was compressed in a 6 mm disc recess, under 100 kg for 2 minutes, with greaseproof paper on the compression base, to form nondisintegrating discs. The discs were then plugged with a bung so that only one surface was exposed to the media during analysis and transferred to the Sirius inForm dissolution apparatus. Analysis was performed at 37° C. in 40 mL media (36 mL ISA water, 4 mL 0.1 M Acetate Phosphate Buffer). Dissolution data were collected over 4 pH sectors (pH 2.0, 5.5, 6.5, and 7.4) for a total of 2 hours—30 minutes per sector, with UV spectra collected every 30 seconds. A stir speed of 225 rpm was used with a 10 mm path length probe. The IDR was calculated based on the surface area of the 3/6/8 mm disc recess used (28.3 mm2 surface area). XRPD analysis was performed on all samples, both after compression of the material into the disc recess, and post dissolution analysis to observe any change in form. XRPD diffractograms were collected on the Bruker C2.

[3] = Gravimetric vapour sorption (GVS) analysis; settings: for GVS mass increase: between 0 and 90% RH; for XRPD post GVS analysis: change of solid form after GVS; for GVS hygroscopicity: classification in words
[4] = one week (7 days), scaled-up / characterised material
[5] = one week, material isolated from salt/cocrystal screening experiments
[6] = one week (7 days), scaled-up / characterised material, listed as Form 2

Row | Structure (SMILES) | Storage 25° C./97% RH, XRPD [1, 4] | Storage 40° C./75% RH, XRPD [1, 4] | Storage 40° C./75% RH, XRPD [1, 5] | stability under storage [1] | IDR Sector 1 average (pH 2.0) [2] | GVS mass increase [3] | XRPD post GVS analysis [3] | also measured
1 | O=C(NCc1ncn2ccc(Cl)c(F)c12)c1cn(Cc2cn3cc(C4CC4)ccc3n2)nn1.O=P(O)(O)O [Compound 5] | unchanged by XRPD | unchanged by XRPD | unchanged | stable under storage | 404.1 μg/min/cm^2 | 1.2% | no observed change | IDR Sector 1 pH 2.0 ([2]; listed as Phosphate Pattern 1): 364.7 μg/min/cm^2 and 443.4 μg/min/cm^2; sector 1 IDR compared to free base form Compound 1 Form 1 / other forms [2]: increased sector 1 IDR; XRPD Analysis Post Dissolution ([2]; listed as Phosphate Pattern 1): Partial conversion to Compound 1; GVS hygroscopicity ([3]; listed as Compound 5 Pattern 1): slightly hygroscopic; GVS hygroscopicity ([3]; listed as phosphate): reduced hygroscopicity
2 | CS(=O)(=O)O.O=C(NCc1ncn2ccc(Cl)c(F)c12)c1cn(Cc2cn3cc(C4CC4)ccc3n2)nn1 [Mesylate salt—Pattern 3] | – | – | unchanged | – | – | – | – | –
3 | O=C(NCc1ncn2ccc(Cl)c(F)c12)c1cn(Cc2cn3cc(C4CC4)ccc3n2)nn1.O=C(O)/C=C/C(=O)O [Compound 9] | unchanged by XRPD | unchanged by XRPD | unchanged | stable under storage | 78.3 μg/min/cm^2 | 0.6% | no observed change | IDR Sector 1 pH 2.0 ([2]; listed as Fumarate Pattern 1): 76.8 μg/min/cm^2 and 79.8 μg/min/cm^2; XRPD Analysis Post Dissolution ([2]; listed as Compound 9 Pattern 1): Additional peaks observed in XRPD; XRPD Analysis Post Dissolution ([2]; listed as Fumarate Pattern 1): Additional peaks observed; GVS hygroscopicity ([3]; listed as Compound 9 Pattern 1): slightly hygroscopic; GVS hygroscopicity ([3]; listed as fumarate): reduced hygroscopicity
4 | O=C(NCc1ncn2ccc(Cl)c(F)c12)c1cn(Cc2cn3cc(C4CC4)ccc3n2)nn1 [Amorphous form of Compound 1, N-((7-chloro-8-fluoroimidazo[1,5-a]pyridin-1-yl)methyl)-1-((6-cyclopropylimidazo[1,2-a]pyridin-2-yl)methyl)-1H-1,2,3-triazole-4-carboxamide] | convert to Form 1 | convert to Form 1 | – | – | – | – | convert to Form 1 | form conversion upon heating ([1]; heating to 150° C.): convert to Form 1
5 | CS(=O)(=O)O.O=C(NCc1ncn2ccc(Cl)c(F)c12)c1cn(Cc2cn3cc(C4CC4)ccc3n2)nn1 [Mesylate salt—Pattern 1] | – | – | changes to its XRPD pattern with peaks corresponding to Compound 1 Form 1 being present | – | – | – | – | –
6 | O=C(NCc1ncn2ccc(Cl)c(F)c12)c1cn(Cc2cn3cc(C4CC4)ccc3n2)nn1.O=C(O)CCC(=O)O [Compound 4] | unchanged by XRPD | unchanged by XRPD | unchanged | stable under storage | 255.5 μg/min/cm^2 | 0.16% | no observed change | IDR Sector 1 pH 2.0 ([2]; listed as Succinate Pattern 1): 270.8 μg/min/cm^2 and 240.1 μg/min/cm^2; sector 1 IDR compared to free base form Compound 1 Form 1 / other forms [2]: increased sector 1 IDR; XRPD Analysis Post Dissolution ([2]; listed as Compound 4 Pattern 1): additional peaks observed in XRPD; XRPD Analysis Post Dissolution ([2]; listed as Succinate Pattern 1): Additional peaks observed; GVS hygroscopicity ([3]; listed as Compound 4 Pattern 1): non-hygroscopic; GVS hygroscopicity ([3]; listed as succinate): reduced hygroscopicity
7 | O=C(NCc1ncn2ccc(Cl)c(F)c12)c1cn(Cc2cn3cc(C4CC4)ccc3n2)nn1 [Compound 6] | – | – | – | stable under storage | – | – | – | –
8 | O=C(NCc1ncn2ccc(Cl)c(F)c12)c1cn(Cc2cn3cc(C4CC4)ccc3n2)nn1 [Compound 1 Form 2, N-((7-chloro-8-fluoroimidazo[1,5-a]pyridin-1-yl)methyl)-1-((6-cyclopropylimidazo[1,2-a]pyridin-2-yl)methyl)-1H-1,2,3-triazole-4-carboxamide] | Mixture of Compound 1 - Form 1, Compound 1 - | Free base, Compound 1 - Form 1 | – | – | 290.8 μg/min/cm^2 | – | decrease. Mixture of Freebase Patterns 2 & 3 | Storage 25° C./97% RH, XRPD [1, 6]: Peaks corresponding to a suspected hydrated phase; Storage 40° C./75% RH, XRPD [1, 6]: convert to Form 1; XRPD Analysis Post Dissolution [2]: Conversion to Compound 1 - Form 1; GVS increase in mass ([3]; between 80 and 90% RH): 4%; XRPD post GVS analysis ([3]; listed as Form 2): convert to Form 1; GVS hygroscopicity [3]: Hygroscopic
9 | O=C(NCc1ncn2ccc(Cl)c(F)c12)c1cn(Cc2cn3cc(C4CC4)ccc3n2)nn1 [Compound 1 Form 3, N-((7-chloro-8-fluoroimidazo[1,5-a]pyridin-1-yl)methyl)-1-((6-cyclopropylimidazo[1,2-a]pyridin-2-yl)methyl)-1H-1,2,3-triazole-4-carboxamide] | Unchanged by XRPD | Unchanged by XRPD | – | – | – | 0.5% | between 0 and 90% RH. Unchanged by XRPD post | GVS hygroscopicity [3]: Slightly hygroscopic
10 | O=C(NCc1ncn2ccc(Cl)c(F)c12)c1cn(Cc2cn3cc(C4CC4)ccc3n2)nn1.O=C(O)C(O)C(O)C(=O)O [Compound 7] | unchanged by XRPD | unchanged by XRPD | unchanged | – | 656.4 μg/min/cm^2 | 3.4% | No observed change | IDR Sector 1 pH 2.0 ([2]; listed as L-Tartrate Pattern 1): 647.0 μg/min/cm^2 and 665.7 μg/min/cm^2; XRPD Analysis Post Dissolution [2]: poorly crystalline post analysis; GVS hygroscopicity ([3]; listed as Compound 7 Pattern 1): hygroscopic; GVS hygroscopicity ([3]; listed as L-Tartrate Pattern 1): Poorly crystalline, hygroscopic; GVS hygroscopicity ([3]; listed as L-tartrate): hygroscopic
11 | O=C(NCc1ncn2ccc(Cl)c(F)c12)c1cn(Cc2cn3cc(C4CC4)ccc3n2)nn1 [Compound 11] | – | – | unchanged by XRPD | – | – | – | – | –
12 | CS(=O)(=O)O.O=C(NCc1ncn2ccc(Cl)c(F)c12)c1cn(Cc2cn3cc(C4CC4)ccc3n2)nn1 [Mesylate salt—Pattern 2] | – | – | unchanged | – | – | – | – | –
